Paper PMC3285556 (Molecular Microbiology, 2011)

Key:
[1] = target: V. harveyi wild-type CqsS receptor (Vibrio campbellii, UniProt A7N6S2); assay: cell-based; type: cell-based
V. cholerae CqsA = V. cholerae CqsA (Vibrio cholerae serotype O1, UniProt Q9KM65); assay: Coupled-enzyme assay for CqsA enzyme kinetics; type: biochemical; conditions: for Km / Vmax / kcat: Vc CqsA, acyl CoA substrate, 200 µM SAM
[2] = target: V. cholerae CqsS receptor (wild-type) (Vibrio cholerae serotype O1, UniProt Q9KM66); type: cell-based
V. cholerae CqsS C170F = V. cholerae CqsS C170F (Vibrio cholerae serotype O1, UniProt Q9KM66, C170F); type: cell-based
V. harveyi CqsA = V. harveyi CqsA (Vibrio campbellii, UniProt A7N6R9); assay: Coupled-enzyme assay for CqsA enzyme kinetics; type: biochemical; conditions: Vh CqsA, acyl CoA substrate, 200 µM SAM

In the case of `CCCCCCCC(=O)C(O)CC` (stereo not drawn) [C8-CAI-1, 3-hydroxyundecan-4-one], the EC50 ([1]; EC50, V. harveyi wild-type CqsS) is reported as 5 µM, the “agonist activity on V. harveyi CqsS (light production in JMH626), in words” value (shortened to “agonist activity on V. harveyi CqsS”) [1] is reported as “weak agonist” and the “increase in light production” value ([1]; JMH626, 10 µM) is reported as “approximately 400 fold”. The “light production on increasing the concentration” value ([1]; JMH626, 50 µM) was “did not further activate light production”.

In the case of `CCCCCCCC(O)C(=O)CC` (stereo not drawn) [4-hydroxyundecan-3-one], the “agonist activity on V. harveyi CqsS” value [1] is reported as “inactive”.

In the case of `CCCCCCCCCC(=O)SCCNC(=O)CCNC(=O)C(O)C(C)(C)COP(=O)(O)OP(=O)(O)OC[C@H]1O[C@@H](n2cnc3c(N)ncnc32)[C@H](O)[C@@H]1OP(=O)(O)O` (stereo partly drawn) [C10 CoA, decanoyl coenzyme A], the “substrate preference of V. cholerae CqsA, C10-CoA over C8-CoA (Km and kcat)” value (V. cholerae CqsA) is reported as “four- to sixfold”, the Km (V. cholerae CqsA) is reported as 13 ± 3.1 µM and the Vmax (V. cholerae CqsA) is reported as 1.2 ± 0.15 µM/min. The kcat (V. cholerae CqsA) was 0.325 ± 0.0417 s⁻¹.

With `C/C=C(\N)C(=O)CCCCCCC` [Ea-C8-CAI-1, (Z)-3-aminoundec-2-en-4-one] the “agonist activity on V. harveyi CqsS” value [1] was “induce maximal light production” and the “difference in EC50 between C8-CAI-1 and Ea-C8-CAI-1” value [2] was 30 fold.

With `CCCCCCCCCC(=O)[C@@H](O)CC` [CAI-1, (S)-3-hydroxytridecan-4-one] the “agonist activity on V. harveyi CqsS” value [1] was “insensitive” and the “detection by V. cholerae CqsS C170F, in words” value (V. cholerae CqsS C170F) was “only detects Ea-C8-CAI-1 and C8-CAI-1, but not CAI-1 and Ea-CAI-1”.

`CCCCCCCCCC(=O)[C@@H](N)CC` [Am-CAI-1, (S)-3-aminotridecan-4-one] was tested, and the “potency relative to hydroxy counterpart” value ([1]; V. harveyi CqsS, data not shown) was “comparable to the CAI-1 and C8-CAI-1 counterparts” and the “potency relative to hydroxy counterpart” value ([2]; V. cholerae CqsS, data not shown) was “comparable to the CAI-1 and C8-CAI-1 counterparts”.

`CCCCCCCC(=O)SCCNC(=O)CCNC(=O)C(O)C(C)(C)COP(=O)(O)OP(=O)(O)OC[C@H]1O[C@@H](n2cnc3c(N)ncnc32)[C@H](O)[C@@H]1OP(=O)(O)O` (stereo partly drawn) [C8 CoA, octanoyl CoA] was tested, and the Km (V. harveyi CqsA) was 14.1 ± 1.3 µM, the Vmax (V. harveyi CqsA) was 0.64 ± 0.02 µM/min and the kcat (V. harveyi CqsA) was 0.178 ± 0.0067 s⁻¹. The Km (V. cholerae CqsA) was 73 ± 4.9 µM, the Vmax (V. cholerae CqsA) was 1.4 ± 0.05 µM/min and the kcat (V. cholerae CqsA) was 0.075 ± 0.00283 s⁻¹.
